Assay results taken from PubChem BioAssay (NCI).
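A five-concentration, 48-hour dose response in 96-well plates underlies each endpoint, interpolated linearly between surrounding concentrations. GI50 is the concentration that inhibits growth by half. TGI marks complete inhibition of growth.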

How the values were obtained:
Assay in all cases: inhibition of tumour cell growth, NCI panel, 48 h
[1] = tested on: 786-0 renal
[2] = tested on: A498 renal
[3] = tested on: ACHN renal
[4] = tested on: BT-549 breast
[5] = tested on: CAKI-1 renal
[6] = tested on: CCRF-CEM leukemia
[7] = tested on: COLO 205 colon
[8] = tested on: DU-145 prostate
[9] = tested on: EKVX NSCLC
[10] = tested on: HCC-2998 colon
[11] = tested on: HCT-116 colon
[12] = tested on: HCT-15 colon
[13] = tested on: HL-60(TB) leukemia
[14] = tested on: HOP-62 NSCLC
[15] = tested on: HOP-92 NSCLC
[16] = tested on: HS 578T breast
[17] = tested on: HT29 colon
[18] = tested on: K-562 leukemia
[19] = tested on: KM12 colon
[20] = tested on: LOX IMVI melanoma
[21] = tested on: M14 melanoma
[22] = tested on: MALME-3M melanoma
[23] = tested on: MCF7 breast
[24] = tested on: MDA-MB-231 breast
[25] = tested on: MDA-MB-435
[26] = tested on: MOLT-4 leukemia
[27] = tested on: NCI-H226 lung
[28] = tested on: NCI-H23 lung
[29] = tested on: NCI-H460 lung
[30] = tested on: NCI-H522 lung
[31] = tested on: NCI/ADR-RES ovarian
[32] = tested on: OVCAR-3 ovarian
[33] = tested on: OVCAR-4 ovarian
[34] = tested on: OVCAR-5 ovarian
[35] = tested on: OVCAR-8 ovarian
[36] = tested on: PC-3 prostate
[37] = tested on: RPMI-8226 leukemia
[38] = tested on: RXF 393 renal
[39] = tested on: SF-268 CNS
[40] = tested on: SF-295 CNS
[41] = tested on: SF-539 CNS
[42] = tested on: SK-MEL-2 melanoma
[43] = tested on: SK-MEL-28 melanoma
[44] = tested on: SK-MEL-5 melanoma
[45] = tested on: SK-OV-3 ovarian
[46] = tested on: SN12C renal
[47] = tested on: SNB-19 CNS
[48] = tested on: SNB-75 CNS
[49] = tested on: SR leukemia
[50] = tested on: SW-620 colon
[51] = tested on: T-47D breast
[52] = tested on: TK-10 renal
[53] = tested on: UACC-257 melanoma
[54] = tested on: UACC-62 melanoma
[55] = tested on: UO-31 renal

## Nc1cc2c([nH]c[n+]2CC#CCCl)c(SCC#CCCl)n1
[1]
  GI50: 1270 nM
  TGI: 3050 nM
[2]
  GI50: 1100 nM
  TGI: 2440 nM
[3]
  GI50: 580 nM
  TGI: 2940 nM
[4]
  GI50: 1150 nM
  TGI: 2420 nM
[5]
  GI50: 331 nM
  TGI: 1360 nM
[6]
  GI50: 562 nM
  TGI: > 100000 nM
[7]
  GI50: 1460 nM
  TGI: 2900 nM
[8]
  GI50: 1050 nM
  TGI: 2340 nM
[9]
  GI50: 1250 nM
  TGI: 2760 nM
[10]
  GI50: 1770 nM
  TGI: 3170 nM
[11]
  GI50: 738 nM
  TGI: 2350 nM
[12]
  GI50: 1220 nM
  TGI: 2890 nM
[13]
  GI50: 388 nM
  TGI: 2640 nM
[14]
  GI50: 1400 nM
  TGI: 2990 nM
[15]
  GI50: 1840 nM
  TGI: 3860 nM
[16]
  GI50: 1690 nM
  TGI: 7470 nM
[17]
  GI50: 883 nM
  TGI: 2520 nM
[18]
  GI50: 1970 nM
  TGI: > 100000 nM
[19]
  GI50: 1250 nM
  TGI: 2680 nM
[20]
  GI50: 363 nM
  TGI: 1440 nM
[21]
  GI50: 1110 nM
  TGI: 2490 nM
[22]
  GI50: 1090 nM
  TGI: 3170 nM
[23]
  GI50: 442 nM
  TGI: 2180 nM
[24]
  GI50: 1390 nM
  TGI: 3200 nM
[25]
  GI50: 1090 nM
  TGI: 2630 nM
[26]
  GI50: 1320 nM
  TGI: > 100000 nM
[27]
  GI50: 1220 nM
  TGI: 4120 nM
[28]
  GI50: 1230 nM
  TGI: 2620 nM
[29]
  GI50: 374 nM
  TGI: 1500 nM
[30]
  GI50: 522 nM
  TGI: 2080 nM
[31]
  GI50: 1710 nM
  TGI: 4240 nM
[32]
  GI50: 592 nM
  TGI: 1960 nM
[33]
  GI50: 1570 nM
  TGI: 7170 nM
[34]
  GI50: 2130 nM
  TGI: 3680 nM
[35]
  GI50: 1620 nM
  TGI: 6020 nM
[36]
  GI50: 1400 nM
  TGI: 4340 nM
[37]
  GI50: 1000 nM
  TGI: 6570 nM
[38]
  GI50: 1200 nM
  TGI: 2560 nM
[39]
  GI50: 552 nM
  TGI: 2010 nM
[40]
  GI50: 1540 nM
  TGI: 3080 nM
[41]
  GI50: 1620 nM
  TGI: 3240 nM
[42]
  GI50: 1650 nM
  TGI: 4470 nM
[43]
  GI50: 1340 nM
  TGI: 2750 nM
[44]
  GI50: 1190 nM
  TGI: 2430 nM
[45]
  GI50: 1370 nM
  TGI: 2810 nM
[46]
  GI50: 1160 nM
  TGI: 3420 nM
[47]
  GI50: 1400 nM
  TGI: 2840 nM
[48]
  GI50: 1140 nM
  TGI: 2400 nM
[49]
  GI50: 336 nM
  TGI: 16400 nM
[50]
  GI50: 1170 nM
  TGI: 2700 nM
[51]
  GI50: 1120 nM
  TGI: 2450 nM
[52]
  GI50: 1420 nM
  TGI: 3040 nM
[53]
  GI50: 821 nM
  TGI: 2740 nM
[54]
  GI50: 455 nM
  TGI: 1860 nM
[55]
  GI50: 763 nM
  TGI: 2330 nM
